Counter-ions that a name gives are not always drawn.
Columns and labels:
α-1A adrenoreceptor = assay: Functional antagonism: inhibition of PE-induced contraction of canine prostate strips (Schild plot); type: cell-based; settings: phenylephrine-induced contraction
Excerpt: Canine prostate strips were used in vitro as previously described (Hieble, J.P., Boyce, A.J. and Caine, M., Fed. Proc., 45: 2609-2614 (1986)), to determine antagonist potencies against phenylephrine-induced contractions.
Functional assays indicative of pharmacologically defined α-1 adrenoreceptors were used to further characterize compounds. Inhibition of phenylephrine (PE)-induced contraction of canine prostate smooth muscle can be correlated with α-1A adrenoreceptor activation. […] For each of these models, agonist dose response curves were repeated against increasing concentrations of test agent to derive a Schild plot [log ([…]) against log (molarity of test agent)] to determine the pA2.

α-1B adrenoreceptor = biological target: T1, α-1B adrenoreceptor (Rattus norvegicus, UniProt P15823); assay: cell-based; settings: phenylephrine-induced contraction; Schild plot; read-out: In Vitro Characterization (pA2) Rat Spleen (converted)
T1 construct: from tissue; host or cells: rat spleen
T1 sequence (P15823 1-515): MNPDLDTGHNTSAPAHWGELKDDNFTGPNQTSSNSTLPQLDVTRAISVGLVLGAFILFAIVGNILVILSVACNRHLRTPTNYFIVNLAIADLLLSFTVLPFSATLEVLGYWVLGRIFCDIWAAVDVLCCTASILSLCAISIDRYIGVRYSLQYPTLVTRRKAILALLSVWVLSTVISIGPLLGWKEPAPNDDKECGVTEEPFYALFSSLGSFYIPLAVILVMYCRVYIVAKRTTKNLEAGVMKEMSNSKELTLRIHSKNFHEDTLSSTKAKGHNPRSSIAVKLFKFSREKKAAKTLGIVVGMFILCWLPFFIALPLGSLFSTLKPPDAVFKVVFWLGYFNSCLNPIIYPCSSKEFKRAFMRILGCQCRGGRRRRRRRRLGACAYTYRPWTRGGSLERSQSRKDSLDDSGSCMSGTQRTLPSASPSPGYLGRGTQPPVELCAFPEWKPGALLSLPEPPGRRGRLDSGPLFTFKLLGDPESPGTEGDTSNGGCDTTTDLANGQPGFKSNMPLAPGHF
How it was run: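 Phenylephrine dose-response curves for contraction were repeated against increasing test-agent concentrations. pA2 was derived by Schild plot [[…] vs log molarity of test agent].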

Row | SMILES | In Vitro Characterization (pA2) Dog Prostate (α-1A adrenoreceptor) | Kb (α-1B adrenoreceptor) [nM]
1 | COc1ccc2c(c1)OC[C@H]1CN(CCn3c(=O)[nH]c4c(sc5ccccc54)c3=O)C[C@@H]21.Cl (racemic) [Example 63, 3-[2-((±)-cis-7-Methoxy-1,2,3,3a,4,9b-hexahydro-[1]-benzopyrano[3,4-c]pyrrol-2-yl)ethyl]-[1]benzthieno[3,2-d]pyrimidine-2,4(1H,3H)-dione hydrochloride] | 6.65 | –
2 | COc1ccc2c(c1)OC[C@H]1CN(CCCn3c(=O)[nH]c4c(sc5ccccc54)c3=O)C[C@@H]21.Cl (racemic) [Example 64, 3-[3-((±)-cis-7-Methoxy-1,2,3,3a,4,9b-hexahydro-[1]-benzopyrano[3,4-c]pyrrol-2-yl)propyl]-[1]benzthieno[3,2-d]pyrimidine-2,4(1H,3H)-dione hydrochloride] | 6.92 | –
3 | COc1cccc2c1[C@@H]1CN(CCn3c(=O)[nH]c4c(sc5ccccc54)c3=O)C[C@@H]1CO2.Cl (racemic) [Example 65, 3-[2-((±)-cis-9-Methoxy-1,2,3,3a,4,9b-hexahydro-[1]-benzopyrano[3,4-c]pyrrol-2-yl)ethyl]-[1]benzthieno[3,2-d]pyrimidine-2,4(1H,3H)-dione hydrochloride] | 7.76 | –
4 | COc1cccc2c1[C@@H]1CN(CCCn3c(=O)[nH]c4c(sc5ccccc54)c3=O)C[C@@H]1CO2.Cl (racemic) [Example 66, 3-[3-((±)-cis-9-Methoxy-1,2,3,3a,4,9b-hexahydro-[1]-benzopyrano[3,4-c]pyrrol-2-yl)propyl]-[1]benzthieno[3,2-d]pyrimidine-2,4(1H,3H)-dione hydrochloride] | 7.48 | –
5 | COc1cccc2c1OC[C@H]1CN(CCCn3c(=O)[nH]c4c(sc5ccccc54)c3=O)C[C@@H]21.Cl (racemic) [Example 68, 3-[3-((±)-cis-6-Methoxy-1,2,3,3a,4,9b-hexahydro-[1]-benzopyrano[3,4-c]pyrrol-2-yl)propyl]-[1]benzthieno[3,2-d]pyrimidine-2,4(1H,3H)-dione hydrochloride] | 7.02 | –
6 | COc1cccc2c1[C@@H]1CN(CCCCn3c(=O)[nH]c4c(sc5ccnc(Cl)c54)c3=O)C[C@@H]1CO2 [Example 48, 3-[4-((3aR,9bR)-cis-9-Methoxy-1,2,3,3a,4,9b-hexahydro-[1]-benzopyrano[3,4-c]pyrrol-2-yl)butyl]-9-chloro-pyrido[3',4';4,5]thieno[3,2-d]pyrimidine-2,4(1H,3H)-dione hydrochloride] | – | 39.8
7 | COc1cccc2c1[C@@H]1CN(CCCCn3c(=O)[nH]c4c(sc5ccnc(OC)c54)c3=O)C[C@H]1CO2 [Example 49, 3-[4-((3aS,9bR)-trans-9-Methoxy-1,2,3,3a,4,9b-hexahydro-[1]-benzopyrano[3,4-c]pyrrol-2-yl)butyl]-9-methoxy-pyrido[3',4':4,5]thieno[3,2-d]pyrimidine-2,4(1H,3H)-dione fumarate] | – | 7.24
8 | COc1cccc2c1[C@@H]1CN(CCCCn3c(=O)[nH]c4c(sc5ccc(OC(C)C)nc54)c3=O)C[C@H]1CO2 [Example 51, 3-[4-((3aS,9bR)-trans-9-Methoxy-1,2,3,3a,4,9b-hexahydro-[1]-benzopyrano[3,4-c]pyrrol-2-yl)butyl]-8-isopropoxy-pyrido[2',3':4,5]thieno[3,2-d]pyrimidine-2,4(1H,3H)-dione hydrochloride] | – | 33.9
9 | COc1cccc2c1[C@@H]1CN(CCCCn3c(=O)[nH]c4c(sc5c(Cl)nccc54)c3=O)C[C@@H]1CO2 [Example 53, 3-[4-((3aR,9bR)-cis-9-Methoxy-1,2,3,3a,4,9b-hexahydro-[1]-benzopyrano[3,4-c]pyrrol-2-yl)butyl]-6-chloro-pyrido[4',3':4,5]thieno[3,2-d]pyrimidine-2,4(1H,3H)-dione] | – | 63.1
10 | COc1cccc2c1[C@@H]1CN(CCCCn3c(=O)[nH]c4c(sc5c(Cl)nccc54)c3=O)C[C@H]1CO2 [Example 54, 3-[4-((3aS,9bR)-trans-9-Methoxy-1,2,3,3a,4,9b-hexahydro-[1]-benzopyrano[3,4-c]pyrrol-2-yl)butyl]-6-chloro-pyrido[4',3':4,5]thieno[3,2-d]pyrimidine-2,4(1H,3H)-dione] | – | 49
